Experiments:
RSV = assay type: in vivo, mice
[1] = system: E7-expressing TC-1 tumour cells; assay type: in vivo; conditions: H-2b mice immunised twice, 2×10^5 TC-1 cells two weeks after second immunisation; within 15 days; FIG. 6C

In the case of “ESYIGSINNITKQSA [M215 peptide + adjuvant]”, the “Mean RSV load per ½-lung in mice with detectable infection” value (RSV; BALB/c mice challenged intranasally with 8×10^5 pfu RSV, lungs 4 days later, immunofocus assay) is reported as 1.0 × 10^3 pfu, the “Number of mice (%) with detectable RSV in lungs” value (RSV; BALB/c mice, 5 per group, challenged intranasally with 8×10^5 pfu RSV 3 weeks after immunisation, lungs 4 days later, limit of detection 5×10^2 pfu/lung, listed as M15 peptide+adjuvant) is reported as “One of five” and the “RSV-specific immunostaining of lung cryosections” value (RSV; indirect immunofluorescence, 4 days after challenge, FIG. 5) is reported as “reduced staining”.
For RAHYNIVTF [RAH peptide+adjuvant], the “Mice that developed tumour” value [1] was “level of protection was consistent with that observed”.
